In patent US20240389592A1, “FUNGICIDAL COMPOSITIONS” (SYNGENTA CROP PROTECTION AG, priority 2021, published 2024):

What was measured:
[1] = system: Phakopsora pachyrhizi (Asian soybean rust); test: Phakopsora pachyrhizi soybean leaf disk test after whole plant spray; format: in vivo; details: single active ingredient, evaluation 11 to 14 days after inoculation
Description: (§1) A synergistic effect exists whenever the action of an active ingredient combination is greater than the sum of the actions of the individual components. The action to be expected E for a given active ingredient combination obeys the so-called COLBY formula and can be calculated as follows (COLBY, S. R. “Calculating synergistic and antagonistic responses of herbicide combination”. Weeds, Vol. 15, pages 20-22; 1967): • ppm=milligrams of active ingredient (=a.i.) per liter of spray mixture • X=% action by active ingredient A) using p ppm of active ingredient • Y=% action by active ingredient B) using q ppm of active ingredient.
(§2) According to COLBY, the expected (additive) action of active ingredients A)+B) using p+q ppm of active ingredient is
(§3) If the action actually observed (O) is greater than the expected action (E), then the action of the combination is super-additive, i.e. there is a synergistic effect. In mathematical terms, synergism corresponds to a positive value for the difference of (O-E). In the case of purely complementary addition of activities (expected activity), said difference (O-E) is zero. A negative value of said difference (O-E) signals a loss of activity compared to the expected activity.
Phakopsora pachyrhizi (Soybean Rust):
Whole soybean plants are treated with the recited active ingredients 4 weeks after planting. 1 day after spraying leaf disks are cut from the first trifoliate leaf. Five repetitions at each rate are conducted. The leaf disks are inoculated with Phakopsora pachyrhizi (Asian soybean rust) one day after treatment. Evaluation of the leaf disks is conducted 11 to 14 days after inoculation and the activity is derived from the relation of the treated vs untreated, infested check. The rates of the active ingredients used are given in Table as g active ingredient (a.i.)/ha.

[2] = system: Glomerella lagenarium syn. Colletotrichum lagenarium (Anthracnose of cucurbits); test: Glomerella lagenarium liquid culture growth inhibition (microtiter plate, PDB); format: cell-based; details: single active ingredient, 72 hrs
Description: A synergistic effect exists whenever the action of an active ingredient combination is greater than the sum of the actions of the individual components. The action to be expected E for a given active ingredient combination obeys the so-called COLBY formula and can be calculated as follows (COLBY, S. R. “Calculating synergistic and antagonistic responses of herbicide combination”. Weeds, Vol. 15, pages 20-22; 1967): • ppm=milligrams of active ingredient (=a.i.) per liter of spray mixture • X=% action by active ingredient A) using p ppm of active ingredient • Y=% action by active ingredient B) using q ppm of active ingredient. According to COLBY, the expected (additive) action of active ingredients A)+B) using p+q ppm of active ingredient is If the action actually observed (O) is greater than the expected action (E), then the action of the combination is super-additive, i.e. there is a synergistic effect. In mathematical terms, synergism corresponds to a positive value for the difference of (O-E). In the case of purely complementary addition of activities (expected activity), said difference (O-E) is zero. A negative value of said difference (O-E) signals a loss of activity compared to the expected activity. Glomerella Lagenarium Syn. Colletotrichum lagenarium (Anthracnose of Cucurbits): Conidia of the fungus from cryogenic storage were directly mixed into nutrient broth (PDB potato dextrose broth). A DMSO solution of the test compounds was placed into a microtiter plate (96-well format) and the nutrient broth containing the fungal spores was added to it. The test plates were incubated at 24 C and the inhibition of growth was determined photometrically after 72 hrs at 620 nm.

[3] = system: Septoria tritici (leaf blotch); test: Septoria tritici liquid culture growth inhibition (microtiter plate, PDB); format: cell-based; details: single active ingredient, 72 hrs
Description: as §1, §2, §3
Septoria tritici (Leaf Blotch):
Conidia of the fungus from cryogenic storage were directly mixed into nutrient broth (PDB potato dextrose broth). A DMSO solution of the test compounds was placed into a microtiter plate (96-well format) and the nutrient broth containing the fungal spores was added to it. The test plates were incubated at 24 C and the inhibition of growth was determined photometrically after 72 hrs.

| Compound | Observed Activity (%) ([1]; 0.1 g ai/ha) | Observed Activity (%) ([1]; 0.3 g ai/ha) | Observed Activity (%) ([2]; 0.74 g ai/ha) | Observed Activity (%) ([2]; 2.22 g ai/ha) | Observed Activity (%) ([2]; 6.66 g ai/ha) | Observed Activity (%) ([2]; 20 g ai/ha, 24 C, 620 nm) | Observed Activity (%) ([1]; 0.9 g ai/ha) | Observed Activity (%) ([3]; 0.0246 g ai/ha) | Observed Activity (%) ([3]; 0.074 g ai/ha) | Observed Activity (%) ([3]; 0.22 g ai/ha) | Observed Activity (%) ([3]; 10 g ai/ha) | Observed Activity (%) ([3]; 20 g ai/ha, 24 C) | Observed Activity (%) ([2]; 10 g ai/ha) | inhibition at 0.1 g/ha ([1]; Phakopsora pachyrhizi, foliar, 0.1 g ai/ha, read-out: Observed Activity (%)) [%] |
| --- | --- | --- | --- | --- | --- | --- | --- | --- | --- | --- | --- | --- | --- | --- |
| CCC(=O)Oc1c(OC)ccnc1C(=O)N[C@@H](C)C(=O)O[C@@H](C)[C@@H](C)c1ccccc1C [Metarylpicoxamid, metarylpicoxamid] | 0 | 51 |  |  |  |  |  |  |  |  |  |  |  |  |
| O=C(Nc1ccccc1F)c1ccc(-c2noc(C(F)(F)F)n2)cc1 [Flufenoxadiazam, flufenoxadiazam] | 3 | 5 | 20 | 20 | 50 | 90 | 31 |  |  |  |  |  |  |  |
| inpyrfluxam | 13 | 25 |  |  |  |  | 68 | 20 | 70 | 90 |  |  |  |  |
| CCOC(=O)c1cnn(Cc2ccc(O/C=C(\OCC)C(F)(F)F)cc2)c1 [Compound A-1.2, ethyl 1-[[4-[[(1Z)-2-ethoxy-3,3,3-trifluoro-1-propen-1-yl]oxy]phenyl]methyl]-1H-pyrazole-4-carboxylate] |  |  |  |  |  | 0 |  |  |  |  | 0 | 0 | 0 | 16 |
